Laboratory results published in paper PMC10728220, “Novel 3-(pyrazol-4-yl)-2-(1H-indole-3-carbonyl)acrylonitrile derivatives induce intrinsic and extrinsic apoptotic death mediated P53 in HCT116 colon carcinoma” (Scientific Reports, 2023).
pIC50: −log10 of the molar value. Converted amounts (≈) assume the structure as drawn.

Experiments:
[1] = system: normal human skin melanocyte cell line (HFB4); assay: Cytotoxic MTT assay, normal HFB4 cells; format: cell-based; settings: 48 h treatment
Procedure: (§1) MTT protocol was performed to study the viability of cells after treatment with the tested compounds. The studied cell lines (A549 and HCT116) were cultured and grown in RPMI‐1640 media, while HFB4 cells were reserved in DMEM‐F12 media. Both media were supplemented with 10% FBS, 1% L‐glutamine, and 1% antibiotic–antimycotic mixture. The cell lines were grown at conditions of 37 °C and 5% CO2. 10 × 10^3 of A549, and HCT116 cells and the same count of normal melanocytes (HFB4) were cultured in a 96‐well plate. The selected cultured cells were kept at 37°C and 5% CO2 overnight. Then, the medium was discarded after 24 h of incubation, and 100 µL from different concentrations of the studied compounds dissolved in fresh medium without serum, with final concentrations of 100, 50, 25, 12.5, 6.25, 3.125, 1.56, and 0.78 µg/mL was added. The treated cells were then incubated for 48 h. After that, 50 µL of MTT was added into each well for 4 h for the formazan crystals to be formed. Finally, 200 µl of 10% sodium dodecyl sulphate (SDS) was added to each well, and plates were kept at room temperature overnight to allow the reaction to be stopped. The optical density at 575 nm was read using a microplate multi-well reader, and the percentage of cell viability was calculated. The dose–response curve was drawn to calculate the IC50 values for each compound using the prism GraphPad 5 program, [84]. 5 Fluorouracil, a commercial anticancer drug was used as a reference drug (positive control). Negative untreated cell control was used in this assay.

[2] = system: lung carcinoma (A549); assay: Cytotoxic MTT assay, A549; format: cell-based; settings: Homo sapiens, 48 h treatment
Procedure: as §1

[3] = system: colorectal carcinoma (HCT116); assay: Cytotoxic MTT assay, HCT116; format: cell-based, human; settings: Homo sapiens, HCT-116; MTT, 48 h treatment
Procedure: as §1

[4] = system: MCF-7; design: method as in Jumaah et al., 65; settings: ref Jumaah et al., 65; cited from earlier work
[5] = system: HepG2; design: method as in PMID 34939695; settings: previous study of the authors; cited from earlier work
[6] = system: A549; design: method as in PMID 34939695; settings: previous study of the authors; cited from earlier work
[7] = system: HepG2; design: method as in doi:10.1007/s00706-021-02886-5; settings: cited from earlier work
[8] = system: A549; design: method as in doi:10.1007/s00706-021-02886-5; settings: cited from earlier work

**Q.** Which melting point does the source give for `Cc1ccc(-c2nn(-c3ccccc3)cc2/C=C(\C#N)C(=O)c2c[nH]c3ccccc23)cc1` [Compound 7b, (E)-2-(1H-Indole-3-carbonyl)-3-(1-phenyl-3-(p-tolyl)-1H-pyrazol-4-yl)acrylonitrile] here?
**A.** 288 to 290 °C

**Q.** What about the IC50 [1] of the same compound?
**A.** > 100 µg/mL

**Q.** What about the IC50 [2] of the same compound?
**A.** > 100 µg/mL

**Q.** And the IC50 [3]?
**A.** > 100 µg/mL

**Q.** With `COc1ccc2c(/C=C/C(=O)c3cc(OC)c(OC)c(OC)c3)cn(C)c2c1` [(E)-3-(6-methoxy-1-methyl-1H-indol-3-yl)-1-(3,4,5-tri-methoxyphenyl)-prop-2-en-1-one] as the compound, how does the pIC50 [4] read?
**A.** 4.72

**Q.** With `N#C/C(=C\c1cn(-c2ccccc2)nc1-c1ccccc1)C(=O)c1c[nH]c2ccccc12` [Compound 7a, (E)-3-(1,3-Diphenyl-1H-pyrazol-4-yl)-2-(1H-indole-3-carbonyl)acrylonitrile] as the compound, how does the melting point read?
**A.** 250 to 252 °C

**Q.** What about the IC50 [1] of the same compound?
**A.** > 100 µg/mL

**Q.** And the IC50 [2]?
**A.** > 100 µg/mL

**Q.** And the IC50 [3]?
**A.** 93.1 µg/mL (≈ 225 µM)

**Q.** Which results are given for `N#C/C(=C\c1cn(-c2ccccc2)nc1-c1ccc(O)cc1)C(=O)c1c[nH]c2ccccc12` [Compound 7d, (E)-3-(3-(4-Hydroxyphenyl)-1-phenyl-1H-pyrazol-4-yl)-2-(1H-indole-3-carbonyl)acrylonitrile]?
**A.** melting point: 288 to 290 °C; IC50 [1]: > 100 µg/mL; IC50 [2]: > 100 µg/mL; IC50 [3]: 43 µg/mL (≈ 99.9 µM)

**Q.** Which IC50 [1] does the source give for `O=c1[nH]cc(F)c(=O)[nH]1` [5 FU, 5-Fluorouracil, reference compound] here?
**A.** 223 µg/mL (≈ 1710 µM)

**Q.** And the IC50 [2]?
**A.** 371 µg/mL (≈ 2850 µM)

**Q.** And the IC50 [3]?
**A.** 77.2 µg/mL (≈ 593 µM)

**Q.** What does the source list for 3-(thiophen-2-yl)pyrazol-4-yl)chalcone?
**A.** pIC50 [5]: 4.19; pIC50 [6]: 4.18

**Q.** For `Cc1ccc(C=CC(=O)c2c(C)nn(-c3ccc([N+](=O)[O-])cc3)c2C)cc1` [1-[3,5-dimethyl-1-(4-nitrophenyl)-1H-pyrazol-4-yl]-3-(p-tolyl) prop-2-en-1-one], which “IC50 HepG2” value [7] is on record?
**A.** 57.9 µg/mL (≈ 160 µM)

**Q.** And the “IC50 A549” value [8]?
**A.** 44.3 µg/mL (≈ 123 µM)

**Q.** With `N#C/C(=C\c1cn(-c2ccccc2)nc1-c1ccc(Cl)cc1)C(=O)c1c[nH]c2ccccc12` [Compound 7e, (E)-3-(3-(4-Chlorophenyl)-1-phenyl-1H-pyrazol-4-yl)-2-(1H-indole-3-carbonyl)acrylonitrile] as the compound, how does the melting point read?
**A.** 296 to 298 °C

**Q.** What about the IC50 [1] of the same compound?
**A.** > 100 µg/mL

**Q.** What about the IC50 [2] of the same compound?
**A.** > 100 µg/mL

**Q.** What about the IC50 [3] of the same compound?
**A.** > 100 µg/mL

**Q.** For `COc1ccc(-c2nn(-c3ccccc3)cc2/C=C(\C#N)C(=O)c2c[nH]c3ccccc23)cc1` [Compound 7c, (E)-2-(1H-Indole-3-carbonyl)-3-(3-(4-methoxyphenyl)-1-phenyl-1H-pyrazol-4-yl)acrylonitrile], which melting point is on record?
**A.** 252 to 254 °C

**Q.** And the IC50 [1]?
**A.** > 100 µg/mL

**Q.** And the IC50 [2]?
**A.** > 100 µg/mL

**Q.** What about the IC50 [3] of the same compound?
**A.** > 100 µg/mL
